Laboratory results: patent publication US5684036A, “Cytotoxic macrolides and methods of use” (Harbor Branch Oceanographic Institution, Inc., priority 1995, dated 1997)
In brackets after ≈: the same amount, converted by molar mass. Like-named read-outs stand apart in the source and are kept apart here.

Tests used:
Format in all cases: cell-based
[1] = system: P388 murine leukemia cells; experiment: antiproliferative effect against P388 murine leukemia cells (MTT, 48 hour exposure); settings: for IC50: Mus musculus, P388
Experimental: (§1) Lasonolide A was tested for toxicity against P388 murine leukemia cells and A549 human lung carcinoma cells, and for their ability to perturb signal transduction pathways associated with activation of protein kinase C (PKC) and EL-4 cell adherence.
(§2) A. Maintenance of cell line. The P388 murine leukemia cells were obtained from Dr. J. Mayo, National Cancer Institute, Bethesda, Md. The A549 cells and EL-4.IL-2 cells (TIB) were obtained from the American Type Culture Collection, Rockville, Md. The P388 cells were maintained in Roswell Park Memorial Institute medium 1640 (RPMI-1640) supplemented with 10% horse serum and cultured in plastic tissue culture flasks and kept in an incubator at 37° C. in humidified air containing 5% CO2. The A549 cells were similarly maintained in RPMI-1640 but supplemented with 10% fetal bovine serum. Antibiotic-free stock cultures of P388 and A549 cells were subcultured to 10^5 cells/mi by dilutions in fresh growth medium at 2 to 5 day intervals. The EL-4 cells were similarly maintained but supplemented with 10% v/v heat-inactivated fetal calf serum, 100 U/ml penicillin, 100 μg/ml streptomycin, 6/ μg/ml L-glutamine, and 5×10^-3 M 2-mercaptoethanol (TCM) (Grand Island Biologicals Co., Grand Island, N.Y.).
B. Procedure. […]
(§3) To quantitate the effects of Lasonolide A or its analogs on cell proliferation, 75 μl warm growth medium containing 5 mg/ml MTT was added to each well. […] To spectrophotometrically quantitate formation of reduced formazan, plates were centrifuged (900 g, 5 minutes), culture fluids were removed by aspiration, and 200 μl of acidified isopropanol (2 ml concentrated HCl/L isopropanol) added per well. The absorbance of the resulting solutions was measured at 570 nm with a plate reader (MR700 Microplate Reader, Dynatech Laboratories, Chantilly, Va.). […]

[2] = system: tumor cell; experiment: inhibition of tumor cell growth (general statement); settings: in words
[3] = system: EL-4 cell adherence (protein kinase C); experiment: EL-4 adherence assay (PKC-associated, with or without PMA); design: key to EL-4 Adherence: Inh: inhibition; settings: for IC50: Mus musculus, EL4
Experimental: as §1, §2
Cells were passaged every 3-4 days. Viability was determined by Trypan blue exclusion and always exceeded 80%. For the adherence assay, cells were utilized within 15 passages of frozen stock cultures. Phorbol-12-myristate-13-acetate (PMA), and 4α-phorbol-12-myristate-13-acetate (4α-PMA) were obtained from LC Services Corporation (Woburn, Mass.). Stock solutions of PMA and 4α-PMA were prepared in DMSO and were stored at -70° C. prior to use.
To assess the effect of the subject compound on EL-4 cells, EL-4 cells (2.5×10^5 /well) were cultured in 96-well, flat-bottomed microtiter test plates at 37° C. with the sponge metabolites in triplicate concentrations in the presence (Plate #1) or absence (Plate #2) of PMA (16 nM final concentration). […] Controls consisted of cells incubated alone (negative control) and cells incubated with PMA (positive control). An additional control plate (Plate #3), consisting of EL-4.1IL-2 cells and identical dilutions of compounds in the absence of PMA served as a cytotoxicity plate and was not processed for adherence as described below, but used to monitor the potential cytotoxic effect of compounds for EL-4.1IL2 cells. Incubation time was 1 hour at 37° C. Following the incubation period, Plates #1 and #2 were processed as follows: the contents of each well were removed by flicking the plates into a catch tray and placing the plates inverted onto a paper towel in order to drain and blot the remaining draining wells. To each well, a volume of 100 μl of TCM was added at room temperature and the plates placed on a rotating platform shaker (Mini-Orbital Shaker, BELLCO Biotechnology, Vineland, N.J.) at setting 5 for 4 minutes. The plates were then rotated 180° and subjected to an additional 4 minutes of shaking. The plates were removed and their contents again removed as described, blotted, TCM added to each well, and the plates placed on the rotating shaker. This process was repeated for two additional wash cycles.
Following the removal of well contents, a volume of 200 μl of TCM and 75 of MTT solution (2 mg/ml in TCM) was added to each well of all plates. Plates were incubated at 37° C. for an additional 4 hours. Following incubation, the contents of Plates #1 and #2 were again removed by flicking the plate into the sink and the plates blotted onto paper towels. Plate #3 was centrifuged and likewise blotted. A volume of 200 μl of iPrOH was then added to each well of all plates in order to dissolve the resulting formazan crystals. The plates were read at 570 nm using a plate reader (Microplate Autoreader, Model EL-311, BIO-TEK Instruments, Inc., Winooski, Vt.). The absorbances for each set of triplicate wells were averaged and the standard error determined. […]

[4] = system: A549 human lung carcinoma cells; experiment: antiproliferative effect against A549 human lung carcinoma cells (MTT, 72 hours)
Experimental: as §1
A. Maintenance of cell line. The P388 murine leukemia cells were obtained from Dr. J. Mayo, National Cancer Institute, Bethesda, Md. The A549 cells and EL-4.IL-2 cells (TIB) were obtained from the American Type Culture Collection, Rockville, Md. The P388 cells were maintained in Roswell Park Memorial Institute medium 1640 (RPMI-1640) supplemented with 10% horse serum and cultured in plastic tissue culture flasks and kept in an incubator at 37° C. in humidified air containing 5% CO2. The A549 cells were similarly maintained in RPMI-1640 but supplemented with 10% fetal bovine serum. […]
as §3

C=C(CCC(C)C)COC(=O)C(O)C/C=C/CC1OC2/C=C\C/C=C/C(C)=C\C3OC(C/C=C/C=C/C(=O)OC(C2)C1(C)CO)CC(O)C3C (stereo not shown) [Lasonolide A]
IC50 ([1]; Table 4, MTT, 48 hours, read-out: P388 IC50): 0.002 µg/mL (≈ 0.00287 µM)
IC50 ([1]; read-out: IC50 against mouse leukemia cells): < 0.01 µg/mL
inhibitory properties against mouse leukemia cells ([1]; in words): strong inhibitory properties
inhibition of tumor cell growth [2]: inhibit tumor cell growth
IC50 ([3]; Table 4, Assay # 38, read-out: EL-4 Adherence IC50): 0.019 µg/mL (≈ 0.0273 µM)
IC50 ([3]; unit inferred, read-out: IC50 by EL-4 Adherence): 0.019 µg/mL (≈ 0.0273 µM)
EL-4 Adherence ([3]; Table 4, 3.125 μg/ml): Inh
EL-4 Adherence ([3]; Table 4, 6.25 μg/ml): Inh
EL-4 Adherence ([3]; Table 4, 12.5 μg/ml): Inh
EL-4 Adherence ([3]; Table 4, 25 μg/ml): Inh
Inhibition using the EL-4 Adherence assay ([3]; in words): strong
IC50 ([4]; Table 4, MTT, 72 hours, read-out: A549 IC50): 0.04 µg/mL (≈ 0.0574 µM)
IC50 ([4]; read-out: IC50 against cultured human lung carcinoma cells (A549)): 0.04 µg/mL (≈ 0.0574 µM)
